*1 amine or outer side, *2 acyl side, *3 side chain or, on linkers, in order; H or OH if unused. Where a SMILES comes first, the peptide text is derived from it. Bridges are numbered along the chain shown (N, C = ends). [ ]: non-standard residue; d: D form. The star is where a group is joined. X1 = COc1ccc(C2CCC(N[*:1])(C(=O)[*:2])CC2)cc1; Pentanoyl = CCCCC(=O)*

Data on 2 compounds can be found in US20090042790A1, “TRANSMUCOSAL DELIVERY OF PEPTIDE DERIVATIVES” (NASTECH PHARMACEUTICAL COMPANY INC., priority 2005, published 2009).

Assay [1] concerns EpiAirway™ epithelial cell monolayer. Nature of the assay: Transepithelial electrical resistance (TEER) of EpiAirway epithelial cell monolayer. The following applies: positive TEER control. The format is cell-based. As for the experimental part: The epithelial cells are grown on porous membrane-bottomed cell culture inserts at an air-liquid interface, which results in differentiation of the cells to a highly polarized morphology. The apical surface is ciliated with a microvillous ultrastructure and the epithelium produces mucus (the presence of mucin has been confirmed by immunoblotting). The inserts have a diameter of 0.875 cm, providing a surface area of 0.6 cm^2. The cells are plated onto the inserts at the factory approximately three weeks before shipping. One “kit” consists of 24 units.
These junctions confer a transepithelial resistance of several hundred ohms×cm^2 in excised airway tissues.

For assay [2], the target named is T1, melanocortin-4 cell receptor (MC4 receptor) (Homo sapiens, UniProt P32245).
T1 construct: expressed in transfected cells; host or cells: HEK293
Nature of the assay: cAMP assay in HEK293 cells expressing the MC4 receptor. It counts as cell-based. As to conditions: 1×10^−11 to 1×10^−5 M, FIG. 1, read-out: effective concentration to reach a 50% response level (EC50), cAMP production. As for the experimental part:
FIG. 1: The ability of the 2 kDa PEGylated MC4-RA and unmodified MC-4RA to stimulate cAMP production in cells expressing the melanocortin-4 cell receptor (MC4 receptor) was compared. HEK293 cells expressing the MC4 receptor were incubated with either the 2 kDa PEGylated MC4-RA or the unmodified MC4-RA. The concentrations used for either MC4-RA in the cAMP assay ranged from approximately 1×10^−11 to 1×10^−5 M. The maximum quantity of cAMP was normalized to 100% or “% Max Response” and the concentration of 2 kDA PEGylated or unmodified MC4-RA was shown as the log of the Molar concentration. The effective concentration to achieve a 50% response (EC50) is shown.
An ideal property of any therapeutic agent is target specificity as induction, for example, of unwanted cell surface receptors and/or cell signaling pathways may lead to deleterious outcomes in the patient subject. […]
Potency was measured as the ability of the 2 kDa PEGylated MC4-RA or the unmodified MC4-RA to stimulate cAMP production in cells expressing the melanocortin-4 cell receptor (MC4 receptor). […] The experiment was performed in triplicate and cAMP levels were measured with the cAMP Tropix assay kit. The maximum quantity of cAMP was normalized to 100% or “% Max Response” and the concentration of 2 kDa PEGylated or unmodified MC4-RA is shown as the log of the Molar concentration.
A general note: cAMP levels reflect the balance of adenylyl cyclase and phosphodiesterase activity.

Assay [3] deals with T2, melanocortin-1 (MC1 receptor) (Homo sapiens, UniProt Q01726).
T2 construct: expressed in transfected cells; host or cells: HEK293
Nature of the assay: cAMP assay in HEK293 cells expressing the MC1 receptor. As to conditions: 1×10^−11 to 1×10^−5 M, FIG. 2, read-out: effective concentration to reach a 50% response level (EC50), cAMP production. The format is cell-based. As for the experimental part: FIG. 2: The degree of MC4 receptor specificity of the 2 kDa PEGylated MC4-RA and the unmodified MC4-RA was compared. The ability to stimulate cAMP production in cells in vitro was assayed; HEK293 cells expressed the melanocortin-1 (MC1 receptor). A measured increase in cAMP levels indicated a lack of MC4 receptor specificity. The 2 kDa PEGylated and unmodified MC4-RA were incubated in a concentration range of approximately 1×10^−11 to 1×10^−5 M with HEK293 cells that were expressing the MC1 receptor. The maximum quantity of cAMP was normalized to 100% or “% Max Response” and the concentration of 2 kDA PEGylated or unmodified MC4-RA was shown as the log of the Molar concentration. The effective concentration to achieve a 50% response (EC50) is shown.
The degree of MC4 receptor specificity of the 2 kDa PEGylated MC4-RA and the unmodified MC4-RA was compared. […] In this instance, a measured increase in cAMP levels would indicate a lack of MC4 receptor specificity. […] The experiment was performed in triplicate and cAMP levels were measured with the cAMP Tropix assay kit. The maximum quantity of cAMP was normalized to 100% or “% Max Response” and the concentration of 2 kDa PEGylated or unmodified MC4-RA is shown as the log of the Molar concentration.

Assay [4] concerns male DOI mice (obesity mouse model system). Description: Cumulative food intake in male DOI mice. The following applies: high dose group (doses 1.25, 2.5, 5 mg/kg); 16 and 24 hours after dose administration; vs 30% PEG control; FIG. 3. The format is in vivo. As for the experimental part: The effect of the low molecular weight PEGylated MC4-RA and unmodified MC4-RA on food intake was evaluated under regular light cycle in male DOI mice (obesity mouse model system). Control mice were administered a 30% PEG formulation. For the unmodified MC4-RA in vivo study, individual subjects categorized into three separate study groups, based on dosage levels, were administered 1.25 mg/kg, 2.5 mg/kg or 5 mg/kg of unmodified MC4-RA. For the 2 kDa PEGylated MC4-RA in vivo study, individual subjects categorized into three separate study groups, again based on dosage levels, were administered 5 mg/kg, 10 mg/kg and 20 mg/kg 2 kDa PEGylated MC4-RA. The effective does is higher for the PEGylated MC4-RA due to the tripled molecular weight resulting from the conjugation of a 2 kDa PEG to the MC4-RA molecule.

T2 sequence (Q01726 whole entry): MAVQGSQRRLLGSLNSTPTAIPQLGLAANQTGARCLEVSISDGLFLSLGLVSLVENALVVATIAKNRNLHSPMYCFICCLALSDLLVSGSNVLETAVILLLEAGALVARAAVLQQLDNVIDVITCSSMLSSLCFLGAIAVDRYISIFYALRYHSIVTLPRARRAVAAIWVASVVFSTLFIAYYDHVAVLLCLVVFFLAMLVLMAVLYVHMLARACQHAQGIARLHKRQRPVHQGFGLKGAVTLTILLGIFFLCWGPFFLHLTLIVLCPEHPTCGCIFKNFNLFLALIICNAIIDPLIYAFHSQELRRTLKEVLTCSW
T1 sequence (P32245 whole entry): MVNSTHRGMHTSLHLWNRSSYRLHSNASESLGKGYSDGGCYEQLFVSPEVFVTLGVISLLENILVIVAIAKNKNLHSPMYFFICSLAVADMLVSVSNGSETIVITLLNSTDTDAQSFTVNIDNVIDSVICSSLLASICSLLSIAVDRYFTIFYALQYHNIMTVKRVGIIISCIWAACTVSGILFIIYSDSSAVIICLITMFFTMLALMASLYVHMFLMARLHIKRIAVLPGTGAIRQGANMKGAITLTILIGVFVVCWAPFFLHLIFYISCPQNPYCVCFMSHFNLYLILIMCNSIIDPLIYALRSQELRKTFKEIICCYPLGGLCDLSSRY

“octylphenolpoly(ethyleneglycolether) [Triton X-100 ™]”: the “Average TEER Measurement” value in assay [1] (Table 3 formulation #11: 9% Triton X-100 only) was determined as 1.5; in assay [1] (Table 5 formulation #17: 9% Triton X-100 only) it was 1.2.
On to `CCCCC(=O)N[C@H]1CCC(=O)NCCCC[C@@H](C(N)=O)NC(=O)[C@H](Cc2c[nH]c3ccccc23)NC(=O)[C@H](CCCNC(=N)N)NC(=O)[C@@H](Cc2ccccc2)NC(=O)C2(CCC(c3ccc(OC)cc3)CC2)NC1=O` (some centres unmarked) [unmodified MC4-RA] (Pentanoyl-E[X1][dF]RWK-NH2; lactam 1-6), for which the values for the EC50 in assay [2] and in assay [3] were 0.0005 µM and approximately 0.8 µM, respectively. Besides, the cumulative food intake result in assay [4] was “significant reduction on cumulative food intake”.
